Where a name gives a salt, the structure may show the parent alone.
How the values were obtained:
ROS tyrosine kinase = target: T1, ROS tyrosine kinase (Homo sapiens, UniProt P08922); assay: ROS tyrosine kinase inhibitory activity test (ELISA); assay type: biochemical, humans; conditions: 25 μM ATP substrate solution, 30° C., one hour
T1 construct: purchased Carna Biosciences, Inc
Procedure, shortened: (§1)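 Human recombinant ROS or JAK2 kinase (added as a 0.25 nM solution) reacted for 1 h at 30 °C in 15 mM Tris-Cl pH 7.5, 0.01% Tween-20, 1 mM DTT with compound from DMSO. Substrate phosphotyrosine was detected by HRP anti-phosphotyrosine antibody and TMB at A450, and IC50 came from non-linear regression.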

JAK2 tyrosine kinase = target: T2, JAK2 tyrosine kinase (Homo sapiens, UniProt O60674); assay: JAK2 tyrosine kinase inhibitory activity test (ELISA); assay type: biochemical, humans; conditions: 25 μM ATP substrate solution, 30° C., one hour
T2 construct: purchased Carna Biosciences, Inc
Procedure, shortened: as §1

FIG-ROS/BaF3 cell = target: T3, FIG-ROS/BaF3 cell (Homo sapiens, UniProt P08922); assay: Proliferation inhibitory activity test against FIG-ROS/BaF3 cell; assay type: cell-based; conditions: 3 days incubation, cell counting kit; read-out: Proliferation inhibitory activity against FIG-ROS/BaF3 cell (IC50)
T3 construct: fused on or other part: Q9HD26 (Golgi-associated PDZ and coiled-coil motif-containing protein)
T3 sequence (P08922 whole entry, stated change not applied, the tested form may be a part): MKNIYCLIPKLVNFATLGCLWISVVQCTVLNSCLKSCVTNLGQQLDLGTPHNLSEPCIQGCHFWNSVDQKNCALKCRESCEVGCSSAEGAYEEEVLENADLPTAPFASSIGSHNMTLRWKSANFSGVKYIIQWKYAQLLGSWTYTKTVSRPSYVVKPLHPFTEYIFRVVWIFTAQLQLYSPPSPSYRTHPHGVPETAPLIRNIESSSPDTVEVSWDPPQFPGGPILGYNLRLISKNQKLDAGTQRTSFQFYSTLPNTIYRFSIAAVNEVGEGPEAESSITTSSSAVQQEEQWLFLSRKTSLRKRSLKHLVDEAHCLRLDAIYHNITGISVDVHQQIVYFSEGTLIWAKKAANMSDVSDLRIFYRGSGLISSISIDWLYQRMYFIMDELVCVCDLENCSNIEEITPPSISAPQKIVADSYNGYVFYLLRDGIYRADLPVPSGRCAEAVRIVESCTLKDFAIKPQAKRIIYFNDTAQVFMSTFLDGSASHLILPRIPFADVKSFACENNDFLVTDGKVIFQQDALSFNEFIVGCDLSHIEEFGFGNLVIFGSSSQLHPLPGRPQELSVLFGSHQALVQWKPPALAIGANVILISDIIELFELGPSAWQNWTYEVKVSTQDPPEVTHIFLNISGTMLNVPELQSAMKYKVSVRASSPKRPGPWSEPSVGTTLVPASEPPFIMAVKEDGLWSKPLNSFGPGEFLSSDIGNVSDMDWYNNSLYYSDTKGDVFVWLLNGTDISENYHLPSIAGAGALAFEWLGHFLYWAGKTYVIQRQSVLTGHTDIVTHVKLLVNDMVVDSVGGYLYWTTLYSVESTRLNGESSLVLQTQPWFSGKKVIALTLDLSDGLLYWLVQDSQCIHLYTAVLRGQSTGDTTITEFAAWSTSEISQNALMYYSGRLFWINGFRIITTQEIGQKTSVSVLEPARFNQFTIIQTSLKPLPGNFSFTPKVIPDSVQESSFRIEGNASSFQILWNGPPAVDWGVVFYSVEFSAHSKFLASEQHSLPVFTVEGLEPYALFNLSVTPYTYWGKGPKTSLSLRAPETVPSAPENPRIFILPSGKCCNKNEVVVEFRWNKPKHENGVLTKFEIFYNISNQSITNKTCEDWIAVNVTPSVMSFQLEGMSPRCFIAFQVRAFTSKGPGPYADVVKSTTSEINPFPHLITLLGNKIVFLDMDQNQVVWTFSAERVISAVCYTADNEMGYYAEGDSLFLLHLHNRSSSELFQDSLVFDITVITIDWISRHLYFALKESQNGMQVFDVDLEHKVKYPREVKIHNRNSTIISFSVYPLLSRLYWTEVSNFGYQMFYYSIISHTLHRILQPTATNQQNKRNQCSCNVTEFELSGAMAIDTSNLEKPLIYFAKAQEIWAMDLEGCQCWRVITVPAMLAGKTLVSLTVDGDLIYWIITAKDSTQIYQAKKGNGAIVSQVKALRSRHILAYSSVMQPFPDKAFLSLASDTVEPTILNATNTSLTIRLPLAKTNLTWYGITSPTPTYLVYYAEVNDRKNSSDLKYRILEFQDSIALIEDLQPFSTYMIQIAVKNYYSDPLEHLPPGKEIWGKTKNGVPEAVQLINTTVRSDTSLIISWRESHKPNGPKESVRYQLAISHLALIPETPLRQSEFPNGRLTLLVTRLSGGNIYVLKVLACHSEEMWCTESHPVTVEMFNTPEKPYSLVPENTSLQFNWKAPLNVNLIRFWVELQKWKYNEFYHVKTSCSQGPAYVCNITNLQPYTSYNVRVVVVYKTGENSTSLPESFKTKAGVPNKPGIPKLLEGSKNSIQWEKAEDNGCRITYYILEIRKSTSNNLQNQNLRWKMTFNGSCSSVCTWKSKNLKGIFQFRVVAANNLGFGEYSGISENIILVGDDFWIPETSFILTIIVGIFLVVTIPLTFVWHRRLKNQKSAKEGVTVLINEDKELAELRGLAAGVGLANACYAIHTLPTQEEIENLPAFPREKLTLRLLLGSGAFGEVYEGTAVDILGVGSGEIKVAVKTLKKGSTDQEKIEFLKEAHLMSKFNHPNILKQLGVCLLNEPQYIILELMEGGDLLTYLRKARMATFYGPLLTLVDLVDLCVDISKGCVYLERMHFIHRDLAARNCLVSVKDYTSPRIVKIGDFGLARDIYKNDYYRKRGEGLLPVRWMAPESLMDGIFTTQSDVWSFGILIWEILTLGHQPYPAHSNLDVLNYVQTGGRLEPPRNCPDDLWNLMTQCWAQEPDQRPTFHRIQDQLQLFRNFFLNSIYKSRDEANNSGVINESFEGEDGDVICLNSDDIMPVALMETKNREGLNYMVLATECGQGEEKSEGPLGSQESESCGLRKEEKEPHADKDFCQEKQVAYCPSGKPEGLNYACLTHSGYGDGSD
Protocol: A BaF3 cell which had been transformed by introducing the FIG-ROS fusion gene (derived from U118MG human glioma cell) (FIG-ROS/BaF3 Cell) was prepared on a culture medium, seeded on a 96-well plate in the number of 1×10^3/100 μL per well, and then allowed to stand in a CO2 incubator (at 37° C. and 5% CO2). As the culture medium, 10% FBS (fetal bovine serum)-incorporated RPMI-1640 was used.
2. Proliferation Inhibitory Activity Test:
A test substance was dissolved in dimethyl sulfoxide (DMSO) to 10 mM and further diluted with DMSO to 100-fold to prepare a 100 μM solution. This was diluted with a 1% DMSO-incorporated medium to concentrations of 10-fold of the concentration to be measured (10,000, 1,000, 100, 10, and 1 nM). Each of the medicine solutions was added at 11 μL per well and mixed. To a control having no medicine added thereto, a 1% DMSO-incorporated medium was added, and incubated in a CO2 incubator (at 37° C. and 5% CO2) for 3 days. After completion of the incubation, the number of live cells was counted using a cell counting kit. First of all, each cell counting kit solution was added at 5 μL per well and mixed, and incubated in a CO2 incubator (at 37° C. and 5% CO2) for 4 hours. An absorbance at 450 nm was measured with a microplate reader (Model 3550, manufactured by BIO-RAD, Benchmark, manufactured by BIO-RAD, or iMARK, manufactured by BIO-RAD) with a reference wavelength of 650 nm.
3. Analysis of Measurement Results:
A non-linear regression analysis was performed for the measured absorbance with an SAS system (SAS Institute Inc.), and a concentration of each of the test substances of inhibiting the cell proliferation at 50% (IC50) was calculated. The proliferation inhibitory activity (IC50, nM) of each of the test substances against the FIG-ROS/BaF3 cell is shown in Table 9.

[1] = tested on: non-small cell lung cancer with ROS fusion gene positive; conditions: clinical application, Non-Patent Document 22; cited from earlier work

T1 sequence (P08922 28-2347): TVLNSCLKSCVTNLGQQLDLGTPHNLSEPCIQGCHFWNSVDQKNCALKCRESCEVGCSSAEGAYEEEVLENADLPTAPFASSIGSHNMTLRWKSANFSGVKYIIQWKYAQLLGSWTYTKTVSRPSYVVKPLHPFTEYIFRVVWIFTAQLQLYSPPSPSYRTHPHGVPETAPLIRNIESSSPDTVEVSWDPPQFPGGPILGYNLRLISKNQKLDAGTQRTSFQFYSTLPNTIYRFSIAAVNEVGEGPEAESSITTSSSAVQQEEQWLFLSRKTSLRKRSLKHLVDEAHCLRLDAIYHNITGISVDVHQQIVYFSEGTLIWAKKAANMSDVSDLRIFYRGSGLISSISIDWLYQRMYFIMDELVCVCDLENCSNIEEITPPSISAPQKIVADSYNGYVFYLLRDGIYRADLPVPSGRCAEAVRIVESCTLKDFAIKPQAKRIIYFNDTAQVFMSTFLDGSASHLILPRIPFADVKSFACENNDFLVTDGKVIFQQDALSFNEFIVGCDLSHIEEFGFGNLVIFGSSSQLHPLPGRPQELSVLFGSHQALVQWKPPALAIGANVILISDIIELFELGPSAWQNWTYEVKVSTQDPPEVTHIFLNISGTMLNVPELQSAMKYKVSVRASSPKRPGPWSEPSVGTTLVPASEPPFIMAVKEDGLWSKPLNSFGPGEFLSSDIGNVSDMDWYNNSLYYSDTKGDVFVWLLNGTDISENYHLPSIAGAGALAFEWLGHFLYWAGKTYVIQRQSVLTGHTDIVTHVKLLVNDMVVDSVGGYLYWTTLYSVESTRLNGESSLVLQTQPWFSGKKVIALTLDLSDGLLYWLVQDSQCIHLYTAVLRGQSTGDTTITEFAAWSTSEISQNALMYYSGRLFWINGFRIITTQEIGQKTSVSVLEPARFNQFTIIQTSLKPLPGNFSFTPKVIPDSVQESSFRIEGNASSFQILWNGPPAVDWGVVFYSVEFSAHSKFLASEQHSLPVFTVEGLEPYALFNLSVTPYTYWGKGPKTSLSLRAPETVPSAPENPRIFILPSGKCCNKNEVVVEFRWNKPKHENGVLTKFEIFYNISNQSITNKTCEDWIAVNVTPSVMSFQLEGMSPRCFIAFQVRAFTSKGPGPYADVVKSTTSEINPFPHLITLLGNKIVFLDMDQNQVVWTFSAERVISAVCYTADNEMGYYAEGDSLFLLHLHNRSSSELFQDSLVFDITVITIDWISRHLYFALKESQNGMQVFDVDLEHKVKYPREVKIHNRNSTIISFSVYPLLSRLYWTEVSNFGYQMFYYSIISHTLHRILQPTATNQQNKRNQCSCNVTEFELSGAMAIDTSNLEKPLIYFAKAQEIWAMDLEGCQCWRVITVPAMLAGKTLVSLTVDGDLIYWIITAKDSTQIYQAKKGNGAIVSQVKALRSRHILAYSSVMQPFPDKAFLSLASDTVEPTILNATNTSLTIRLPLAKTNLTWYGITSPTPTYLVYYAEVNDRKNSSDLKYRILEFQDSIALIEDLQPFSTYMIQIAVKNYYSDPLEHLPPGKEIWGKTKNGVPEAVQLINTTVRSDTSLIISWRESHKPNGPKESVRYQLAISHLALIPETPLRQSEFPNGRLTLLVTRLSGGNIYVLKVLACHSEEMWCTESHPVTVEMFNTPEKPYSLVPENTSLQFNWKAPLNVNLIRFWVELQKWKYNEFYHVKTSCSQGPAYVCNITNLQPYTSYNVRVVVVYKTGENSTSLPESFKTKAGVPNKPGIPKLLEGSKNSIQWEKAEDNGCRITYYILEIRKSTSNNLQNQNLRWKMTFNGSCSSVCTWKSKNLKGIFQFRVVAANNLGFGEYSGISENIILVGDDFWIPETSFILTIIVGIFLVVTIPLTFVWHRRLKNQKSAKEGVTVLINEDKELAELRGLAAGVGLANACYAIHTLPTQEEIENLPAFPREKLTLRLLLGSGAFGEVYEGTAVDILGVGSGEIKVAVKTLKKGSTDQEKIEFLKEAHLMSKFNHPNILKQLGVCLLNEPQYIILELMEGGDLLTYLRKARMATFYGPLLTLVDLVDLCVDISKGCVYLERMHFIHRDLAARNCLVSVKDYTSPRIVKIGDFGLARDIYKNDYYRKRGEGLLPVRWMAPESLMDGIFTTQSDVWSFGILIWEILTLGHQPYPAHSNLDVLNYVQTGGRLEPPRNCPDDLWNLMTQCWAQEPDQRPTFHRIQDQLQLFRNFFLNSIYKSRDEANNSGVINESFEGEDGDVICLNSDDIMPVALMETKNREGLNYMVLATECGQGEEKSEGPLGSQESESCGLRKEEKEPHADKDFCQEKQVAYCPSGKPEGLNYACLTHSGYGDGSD

| SMILES | IC50 (ROS tyrosine kinase) | IC50 (JAK2 tyrosine kinase) | GI50 (FIG-ROS/BaF3 cell) | effectiveness for patients of non-small cell lung cancer with ROS fusion gene positive [1] |
| --- | --- | --- | --- | --- |
| COc1c(C)nc(N2CCC[C@H]2c2ccc(C)cc2)nc1Nc1ncc(F)s1 [Example 56, N-(5-Fluoro-1,3-thiazol-2-yl)-5-methoxy-6-methyl-2-[(2S)-2-(4-methylphenyl)pyrrolidin-1-yl]pyrimidine-4-amine] | 6.7 nM | > 1000 nM | 8.2 nM | – |
| CCc1c(COC)nc(N2CCC[C@H]2c2ccc(C)cc2)nc1Nc1ncc(C#N)s1 [Example 57, 2-({5-Ethyl-6-(methoxymethyl)-2-[(2S)-2-(4-methylphenyl)pyrrolidin-1-yl]pyrimidin-4-yl}amino)-1,3-thiazole-5-carbo nitrile] | 2.7 nM | > 1000 nM | 1.8 nM | – |
| COc1c(Nc2ncc(C#N)s2)nc(N2CCC[C@H]2c2ccc(C)cc2)nc1-c1cnn(CCO)c1 [Example 59, 2-({6-[1-(2-Hydroxyethyl)-1H-pyrazol-4-yl]-5-methoxy-2-[(2S)-2-(4-methylphenyl)pyrrolidin-1-yl]pyrimidin-4-yl}amino)-1,3-thiazole-5-carbonitrile] | 1.5 nM | 190 nM | 1.3 nM | – |
| COc1c(Nc2ncc(C#N)s2)nc(N2CCC[C@H]2c2ccc(C)cc2)nc1-c1cnc(C)nc1 [Example 60, 2-({5-Methoxy-2′-methyl-2-[(2S)-2-(4-methylphenyl)pyrrolidin-1-yl]-4,5′-bipyrimidin-6-yl}amino)-1,3-thiazole-5-carbonitrile] | 2.3 nM | 740 nM | 2.9 nM | – |
| COc1c(Nc2ncns2)nc(N2CCC[C@H]2c2ccc(C)cc2)nc1-c1cnn(CCO)c1 [Example 61, 2-(4-{5-Methoxy-2-[(2S)-2-(4-methylphenyl)pyrrolidin-1-yl]-6-(1,2,4-thiadiazol-5-ylamino)pyrimidin-4-yl}-1H-pyrazol-1-yl)ethanol] | 2.5 nM | 490 nM | 1 nM | – |
| COc1c(Nc2ncc(C#N)s2)nc(N2CCC[C@H]2c2ccc(C)cc2)nc1C(=O)N[C@H]1CC[C@H](O)CC1 [Example 62, 6-[(5-Cyano-1,3-thiazol-2-yl)amino]-N-(trans-4-hydroxycyclohexyl)-5-methoxy-2-[(2S)-2-(4-methylphenyl)pyrrolidin-1-yl]pyrimidine-4-carboxamide] | 2.1 nM | > 1000 nM | 2.6 nM | – |
| COc1c(Nc2ncc(C#N)s2)nc(N2CCC[C@H]2c2ccc(C)cc2)nc1C(=O)N[C@H]1CC[C@H](C(=O)O)CC1 [Example 63, Trans-4-[({6-[(5-cyano-1,3-thiazol-2-yl)amino]-5-methoxy-2-[(2S)-2-(4-methylphenyl)pyrrolidin-1-yl]pyrimidin-4-yl}carbonyl)amino]cyclohexanecarboxylic acid] | 0.3 nM | 120 nM | 3.5 nM | – |
| COCCNC(=O)c1nc(N2CCC[C@H]2c2ccc(C)cc2)nc(Nc2ncc(C#N)s2)c1OC [Example 64, 6-[(5-Cyano-1,3-thiazol-2-yl)amino]-5-methoxy-N-(2-methoxyethyl)-2-[(2S)-2-(4-methylphenyl)pyrrolidin-1-yl]pyrimidine-4-carboxamide] | 2.6 nM | > 1000 nM | 1.5 nM | – |
| COc1c(Nc2ncc(C#N)s2)nc(N2CCC[C@H]2c2ccc(C)cc2)nc1-c1ccc(O)nc1 [Example 65, 2-({6-(6-Hydroxypyridin-3-yl)-5-methoxy-2-[(2S)-2-(4-methylphenyl)pyrrolidin-1-yl]pyrimidin-4-yl}amino)-1,3-thiazole-5-carbonitrile] | 1.3 nM | 260 nM | 1.9 nM | – |
| CCc1c(Nc2ncc(C#N)s2)nc(N2CCC[C@H]2c2ccc(C)cc2)nc1C(=O)NS(C)(=O)=O [Example 67, 6-[(5-Cyano-1,3-thiazol-2-yl)amino]-5-ethyl-2-[(2S)-2-(4-methylphenyl)pyrrolidin-1-yl]-N-(methylsulfonyl)pyrimidine-4-carboxamide] | 1.5 nM | 370 nM | 2.1 nM | – |
| Cc1ccc([C@@H]2CCCN2c2cc(C(=O)N[C@H]3CC[C@H](O)CC3)c(C)c(Nc3ncc(C#N)s3)n2)cc1 [Example 68, 2-[(5-Cyano-1,3-thiazol-2-yl)amino]-N-(4-hydroxycyclohexyl)-3-methyl-6-[(2S)-2-(4-methylphenyl)pyrrolidin-1-yl]pyridine-4-carboxamide] | 0.76 nM | 22 nM | 0.71 nM | – |
| Cc1ccc([C@@H]2CCCN2c2cc(-c3cnn(C)c3)cc(Nc3ncns3)n2)cc1 [Example 69, 6-[(2S)-2-(4-Methylphenyl)pyrrolidin-1-yl]-4-(1-methyl-1H-pyrazol-4-yl)-N-(1,2,4-thiadiazol-5-yl)pyridine-2-amine] | 11 nM | 17 nM | 6.9 nM | – |
| CCc1c(C)nc(N2CCC[C@H]2c2ccc(C)cc2)nc1Nc1ncc(C#N)s1 [Example 70, 2-({5-Ethyl-6-methyl-2-[(2S)-2-(4-methylphenyl)pyrrolidin-1-yl]pyrimidin-4-yl}amino)-1,3-thiazole-5-carbonitrile maleate] | 2.9 nM | > 1000 nM | 1.7 nM | – |
| CC(=O)N1CCc2nc(N3CCC[C@H]3c3ccc(C)cc3)nc(Nc3ncc(C#N)s3)c2C1 [Example 71, 2-({6-Acetyl-2-[(2S)-2-(4-methylphenyl)pyrrolidin-1-yl]-5,6,7,8-tetrahydropyrido[4,3-d]pyrimidin-4-yl}amino)-1,3-thiazole-5-carbonitrile] | 1.2 nM | 150 nM | 2 nM | – |
| C[C@@H](Oc1cc(-c2cnn(C3CCNCC3)c2)cnc1N)c1c(Cl)ccc(F)c1Cl [crizotinib] | – | – | – | effective |

From US9580413B2, “Substituted pyrrolidines as ROS tyrosine kinase inhibitors” (NIPPON SHINYAKU CO., LTD., priority 2012, dated 2017)
